# Laboratory results as given in BigSolDB 2.1.
smiles,measurement,setting,value
O=[N+]([O-])c1cc[nH]n1,solubility (mole fraction),"in 1,2-dichlorobenzene, 283.15 K",0.0009
same,solubility (mole fraction),"in 1,2-dichlorobenzene, 288.15 K",0.00242
same,solubility (mole fraction),"in 1,2-dichlorobenzene, 293.15 K",0.00425
same,solubility (mole fraction),"in 1,2-dichlorobenzene, 298.15 K",0.00666
same,solubility (mole fraction),"in 1,2-dichlorobenzene, 303.15 K",0.00908
same,solubility (mole fraction),"in 1,2-dichlorobenzene, 308.15 K",0.0113
same,solubility (mole fraction),"in 1,2-dichlorobenzene, 313.15 K",0.0139
same,solubility (mole fraction),"in 1,2-dichlorobenzene, 318.15 K",0.0166
same,solubility (mole fraction),"in 1,2-dichlorobenzene, 323.15 K",0.0197
same,solubility (mole fraction),"in 2-ethylhexyl acetate, 283.15 K",0.00998
same,solubility (mole fraction),"in 2-ethylhexyl acetate, 288.15 K",0.0107
same,solubility (mole fraction),"in 2-ethylhexyl acetate, 293.15 K",0.0115
same,solubility (mole fraction),"in 2-ethylhexyl acetate, 298.15 K",0.0122
same,solubility (mole fraction),"in 2-ethylhexyl acetate, 303.15 K",0.0134
same,solubility (mole fraction),"in 2-ethylhexyl acetate, 308.15 K",0.0146
same,solubility (mole fraction),"in 2-ethylhexyl acetate, 313.15 K",0.0166
same,solubility (mole fraction),"in anisole, 283.15 K",0.00502
same,solubility (mole fraction),"in anisole, 288.15 K",0.00551
same,solubility (mole fraction),"in anisole, 293.15 K",0.00623
same,solubility (mole fraction),"in anisole, 298.15 K",0.00688
same,solubility (mole fraction),"in anisole, 303.15 K",0.0078
same,solubility (mole fraction),"in anisole, 308.15 K",0.0092
same,solubility (mole fraction),"in anisole, 313.15 K",0.0112
same,solubility (mole fraction),"in anisole, 318.15 K",0.0132
same,solubility (mole fraction),"in anisole, 323.15 K",0.0156
same,solubility (mole fraction),"in benzonitrile, 283.15 K",0.0197
same,solubility (mole fraction),"in benzonitrile, 288.15 K",0.0223
same,solubility (mole fraction),"in benzonitrile, 293.15 K",0.0253
same,solubility (mole fraction),"in benzonitrile, 298.15 K",0.0291
same,solubility (mole fraction),"in benzonitrile, 303.15 K",0.0342
same,solubility (mole fraction),"in benzonitrile, 308.15 K",0.0396
same,solubility (mole fraction),"in benzonitrile, 313.15 K",0.0486
same,solubility (mole fraction),"in benzonitrile, 318.15 K",0.0631
same,solubility (mole fraction),"in benzonitrile, 323.15 K",0.0828
same,solubility (mole fraction),"in benzyl alcohol, 283.15 K",0.0263
same,solubility (mole fraction),"in benzyl alcohol, 288.15 K",0.0296
same,solubility (mole fraction),"in benzyl alcohol, 293.15 K",0.0333
same,solubility (mole fraction),"in benzyl alcohol, 298.15 K",0.0391
same,solubility (mole fraction),"in benzyl alcohol, 303.15 K",0.0452
same,solubility (mole fraction),"in benzyl alcohol, 308.15 K",0.0508
same,solubility (mole fraction),"in benzyl alcohol, 313.15 K",0.0581
same,solubility (mole fraction),"in benzyl alcohol, 318.15 K",0.0672
same,solubility (mole fraction),"in benzyl alcohol, 323.15 K",0.0753
same,solubility (mole fraction),"in mesitylene, 283.15 K",0.00129
same,solubility (mole fraction),"in mesitylene, 288.15 K",0.00162
same,solubility (mole fraction),"in mesitylene, 293.15 K",0.002
same,solubility (mole fraction),"in mesitylene, 298.15 K",0.00246
same,solubility (mole fraction),"in mesitylene, 303.15 K",0.00288
same,solubility (mole fraction),"in mesitylene, 308.15 K",0.00335
same,solubility (mole fraction),"in mesitylene, 313.15 K",0.00401
same,solubility (mole fraction),"in mesitylene, 318.15 K",0.00476
same,solubility (mole fraction),"in mesitylene, 323.15 K",0.00578
same,solubility (mole fraction),"in n-octanol, 283.15 K",0.0127
same,solubility (mole fraction),"in n-octanol, 288.15 K",0.0144
same,solubility (mole fraction),"in n-octanol, 293.15 K",0.0164
same,solubility (mole fraction),"in n-octanol, 298.15 K",0.0192
same,solubility (mole fraction),"in n-octanol, 303.15 K",0.0232
same,solubility (mole fraction),"in n-octanol, 308.15 K",0.0272
same,solubility (mole fraction),"in n-octanol, 313.15 K",0.0315
same,solubility (mole fraction),"in n-octanol, 318.15 K",0.0362
same,solubility (mole fraction),"in n-octanol, 323.15 K",0.0429
